From patent publication US20260224658A1, “PRODUCTS AND METHODS FOR THE DIAGNOSIS AND TREATMENT OF P[…]” (priority 2023, published 2026) come the findings set out here.

≈ marks a conversion by molar mass, not a printed value.

Common to all, as to type: cell-based, Pseudomonas aeruginosa
Assay [1] has as its system MPAO1. The assay is described as follows: microbe, parasite or virus in culture. Conditions: strain MPAO1; for MIC: Pseudomonas aeruginosa, read-out: MIC, average of triplicates. Here is the method:
(§1) MIC experiments were performed using biological triplicates.

Assay [2] has as its system PAO1. The assay is described as follows: microbe, parasite or virus in culture. Conditions: strain PAO1; for MIC: Pseudomonas aeruginosa, read-out: MIC, average of triplicates. Here is the method: as §1
Assay [3] concerns MPAO1-ΔmutL. Description: MIC, microbroth dilution assay. Conditions: for MIC: Pseudomonas aeruginosa, read-out: MIC, average of triplicates. Here is the method:
as §1
A general note: In broth dilution the organism is exposed to a series of concentrations in liquid medium.

In assay [4] the test system is MPAO1-ΔmutS. Description: MIC, microbroth dilution assay. Conditions: for MIC: Pseudomonas aeruginosa, read-out: MIC, average of triplicates. Here is the method: as §1
The test system of assay [5] is MPAO1-ΔmutS. The assay is described as follows: In vitro adaptive evolution (serial passaging) with MIC determination. Conditions: for MIC: Pseudomonas aeruginosa. Here is the method:
(§2) MICs were determined via microbroth dilution assay in 96-well culture plates with 2-fold serial dilutions of tested antibiotic in Mueller-Hinton (cation-adjusted) broth, inoculated with 50 μL of 2.75×10^5 CFU/mL of each bacterial strain and incubated at 37° C., 200 rpm for 24 hours. MIC experiments were performed using biological triplicates.
(§3) Serial passaging of bacterial strains was performed in 96-well culture plates with 2-fold serial dilutions of antibiotic in MH broth, inoculated with 50 μL 2.75×10^5 CFU/mL of each strain and incubated at 37° C., 200 rpm for 24 hours. […] The bacteria were then serially passaged in the same antibiotic and MIC determined for all antibiotics (aztreonam, ciprofloxacin, D-CONGA, D-CONGA-Q7, polymyxin B). See Antimicrobial susceptibility testing section. The bacteria were serially passaged a total of 10 times.
(§4) All resistance acquisition data was analyzed in units of fold-change to normalize for differences in starting MIC across strains. Fold-change in MIC data for all strains and treatment groups was natural log-transformed and simple linear regression was performed considering each replicate fold-change value as an individual point. Slope, standard error of slope, and total number of values of each treatment group of interest were analyzed via unpaired t-test (ΔmutS vs WT) or ordinary one-way ANOVA (cross-resistance acquisition of ΔmutS+AB vs −AB vs WT), and α-values were corrected for multiple comparisons using the Bonferroni method. Differences in estimated mutation rate across treatment groups were determined via ordinary one-way ANOVA (Brown-Forsythe test). For all statistical tests, p<0.05 was considered significant. All figures were created and statistical tests were done using GraphPad Prism 9.3.1.

Assay [6] deals with MPAO1. The description is as above. Conditions: for MIC: Pseudomonas aeruginosa. Here is the method:
as §2, §3, §4

The subject of assay [7] is MPAO1-ΔmutL. Described as above. Conditions: for MIC: Pseudomonas aeruginosa. Here is the method: as §2, §3, §4
The mark [8] stands for this setting: read-out: Average MIC at end point, MPAO1-ΔmutS evolved in AZ.
Setting [9] is: read-out: Average MIC at end point, MPAO1-ΔmutS evolved in AZ + COL.
The mark [10] stands for this setting: read-out: Average MIC at end point, MPAO1-ΔmutS evolved in AZ + D-CONGA.
Setting [11] is: read-out: Average MIC at end point, MPAO1-ΔmutS evolved in AZ + D-CONGA-Q7.
Where [12] appears, read: read-out: Average MIC at end point, MPAO1-ΔmutS evolved in Chl.
Setting [13] is: read-out: Average MIC at end point, MPAO1 evolved in AZ.
Where [14] appears, read: read-out: Average MIC at end point, MPAO1 evolved in AZ + COL.
Where [15] appears, read: read-out: Average MIC at end point, MPAO1 evolved in AZ + D-CONGA.
Where [16] appears, read: read-out: Average MIC at end point, MPAO1 evolved in AZ + D-CONGA-Q7.
The mark [17] stands for this setting: read-out: Average MIC at end point, MPAO1 evolved in Chl + Str.
[18] abbreviates: read-out: Average MIC at end point, MPAO1 evolved in D-CONGA.
Where [19] appears, read: read-out: Average MIC at end point, MPAO1 evolved in D-CONGA-Q7.
Setting [20] is: read-out: Average MIC at end point, MPAO1 passaged with No Antibiotic (Table 4).
[21] abbreviates: read-out: Average MIC at end point, MPAO1 passaged with No Antibiotic (Table 8).
[22] abbreviates: MPAO1-ΔmutL evolved in Chl + Str.
Setting [23] is: MPAO1-ΔmutL passaged with No Antibiotic.
Where [24] appears, read: MPAO1-ΔmutS evolved in AZ + COL.
[25] abbreviates: MPAO1-ΔmutS evolved in AZ + D-CONGA.
The mark [26] stands for this setting: MPAO1-ΔmutS evolved in AZ + D-CONGA-Q7.
Where [27] appears, read: MPAO1-ΔmutS evolved in D-CONGA-Q7.
The mark [28] stands for this setting: MPAO1-ΔmutS passaged with No Antibiotic (Table 4).
Setting [29] is: MPAO1-ΔmutS passaged with No Antibiotic (Table 8).
[30] abbreviates: MPAO1 evolved in AZ + D-CONGA-Q7.
[31] abbreviates: MPAO1 passaged with No Antibiotic (Table 4).
[32] abbreviates: MPAO1 passaged with No Antibiotic (Table 8).

Turning to `[H]/N=C(/N)N[C@H]1[C@H](O)[C@@H](O)[C@H](O[C@@H]2O[C@@H](C)[C@](O)(C=O)[C@H]2O[C@@H]2O[C@@H](CO)[C@H](O)[C@@H](O)[C@@H]2NC)[C@@H](N/C(N)=N\[H])[C@@H]1O` [Streptomycin], the MIC was found to be 8 µg/mL (≈ 13.8 µM) in assay [1], 21 µg/mL (≈ 36.1 µM) in assay [2], 43 µg/mL (≈ 73.9 µM) in assay [3] and 32 µg/mL (≈ 55 µM) in assay [4].

Consider `O=C(N[C@H](CO)[C@H](O)c1ccc([N+](=O)[O-])cc1)C(Cl)Cl` [Chloramphenicol], for which the MIC in assay [1] is not below 400 µg/mL; in assay [2] it was 400 µg/mL (≈ 1240 µM); in assay [3], 400 µg/mL (≈ 1240 µM); in assay [4], not below 400 µg/mL. The “susceptibility of the strains before evolution (summary of Table 3)” value in assay [4] (wild type and mutS-deficient MPAO1) was “anticipated intrinsic resistance”. Also, in assay [5] (MPAO1-ΔmutS evolved in the named drug), the “cross-resistance to antibiotics induced by treatment” value is reported as “induced cross-resistance to antibiotics in a different class such as ciprofloxacin”. Further, the “cross-resistance induced by treatment” value in assay [6] (antibiotic-treated wild type MPAO1) is “no cross resistance developed”.

Take `O=C(O)c1cn(C2CC2)c2cc(N3CCNCC3)c(F)cc2c1=O` [Ciprofloxacin]: the MIC in assay [1] came out at 0.5 µg/mL (≈ 1.51 µM); in assay [2] it was 0.25 µg/mL (≈ 0.754 µM); in assay [3] it was 0.3 µg/mL (≈ 0.905 µM); in assay [4] it was 1 µg/mL (≈ 3.02 µM); in assay [5] (setting [8]) it was 4 µg/mL (≈ 12.1 µM); in assay [5] (setting [9]) it was 2 µg/mL. The MIC in assay [5] (setting [10]) turned out to be 0.8 µg/mL; in assay [5] (setting [11]), 0.7 µg/mL; in assay [5] (setting [12]), 8 µg/mL (≈ 24.1 µM); in assay [6] (setting [13]), 0.25 µg/mL (≈ 0.754 µM); in assay [6] (setting [14]) it was 2 µg/mL; in assay [6] (setting [15]), 0.7 µg/mL. Besides, the MIC came out at 0.8 µg/mL in assay [6] (setting [16]); 2 µg/mL (≈ 6.04 µM) in assay [6] (read-out: Average MIC at end point, MPAO1 evolved in COL); 1 µg/mL (≈ 3.02 µM) in assay [6] (read-out: Average MIC at end point, MPAO1 evolved in Chl); 2 µg/mL in assay [6] (setting [17]); 1 µg/mL (≈ 3.02 µM) in assay [6] (setting [18]); 0.75 µg/mL (≈ 2.26 µM) in assay [6] (setting [19]). Further, the MIC in assay [6] (setting [20]) is 2 µg/mL (≈ 6.04 µM); in assay [6] (setting [21]) it was 0.8 µg/mL (≈ 2.41 µM).

As to Polymyxin B, the “MIC, average of triplicates” value came to 2 µg/mL in assay [1], 2 µg/mL in assay [2], 3 µg/mL in assay [3] (strain ΔmutL) and 2 µg/mL in assay [4] (strain ΔmutS). Further, the “Average MIC at end point” value was 0.5 µg/mL in assay [7] (setting [22]); 2 µg/mL in assay [7] (setting [23]); 2 µg/mL in assay [5] (MPAO1-ΔmutS evolved in AZ); 2 µg/mL in assay [5] (setting [24]); 2 µg/mL in assay [5] (setting [25]); 2 µg/mL in assay [5] (setting [26]). Also, the “Average MIC at end point” value was 27 µg/mL in assay [5] (MPAO1-ΔmutS evolved in COL); 2 µg/mL in assay [5] (MPAO1-ΔmutS evolved in Chl); 3 µg/mL in assay [5] (MPAO1-ΔmutS evolved in D-CONGA); 4 µg/mL in assay [5] (setting [27]); 2 µg/mL in assay [5] (setting [28]); 2 µg/mL in assay [5] (setting [29]). In addition, the “Average MIC at end point” value is 3 µg/mL in assay [6] (MPAO1 evolved in AZ); 2 µg/mL in assay [6] (MPAO1 evolved in AZ + COL); 2 µg/mL in assay [6] (MPAO1 evolved in AZ + D-CONGA); 2 µg/mL in assay [6] (setting [30]); 2 µg/mL in assay [6] (MPAO1 evolved in COL); 2 µg/mL in assay [6] (MPAO1 evolved in Chl). The “Average MIC at end point” value is 4 µg/mL in assay [6] (MPAO1 evolved in D-CONGA), 2 µg/mL in assay [6] (MPAO1 evolved in D-CONGA-Q7), 1 (1) μg/mL in assay [6] (setting [31]) and 2 µg/mL in assay [6] (setting [32]). In addition, the “fold-change relative to starting MIC before treatment” value in assay [7] (setting [22]) is 0.25; in assay [7] (setting [23]), 0.6; in assay [5] (MPAO1-ΔmutS evolved in AZ), 1; in assay [5] (setting [24]), 1; in assay [5] (setting [25]), 1; in assay [5] (setting [26]), 1. Besides, the “fold-change relative to starting MIC before treatment” value in assay [5] (MPAO1-ΔmutS evolved in COL) is on record as 8; in assay [5] (MPAO1-ΔmutS evolved in Chl) it was 1; in assay [5] (MPAO1-ΔmutS evolved in D-CONGA) it was 1.33; in assay [5] (setting [27]), 2; in assay [5] (setting [28]), 1; in assay [5] (setting [29]) it was 1. In addition, the “fold-change relative to starting MIC before treatment” value is reported as 1.3 in assay [6] (MPAO1 evolved in AZ); 1 in assay [6] (MPAO1 evolved in AZ + COL); 1 in assay [6] (MPAO1 evolved in AZ + D-CONGA); 1 in assay [6] (setting [30]); 1 in assay [6] (MPAO1 evolved in COL); 1 in assay [6] (MPAO1 evolved in Chl). Also, the “fold-change relative to starting MIC before treatment” value in assay [6] (MPAO1 evolved in D-CONGA) is given as 2.4; in assay [6] (MPAO1 evolved in D-CONGA-Q7), 1; in assay [6] (setting [31]), 1 (1); in assay [6] (setting [32]) it was 1.

In the case of `C[C@H]1[C@H](NC(=O)/C(=N\OC(C)(C)C(=O)O)c2csc(N)n2)C(=O)N1S(=O)(=O)O` [Aztreonam], the MIC in assay [1] was determined as 2 µg/mL (≈ 4.59 µM); in assay [2] it was 3 µg/mL (≈ 6.89 µM); in assay [3], 30 µg/mL (≈ 68.9 µM); in assay [4] it was 13 µg/mL (≈ 29.9 µM); in assay [7] (read-out: Average MIC at end point, MPAO1-ΔmutL evolved in Chl + Str), 32 µg/mL; in assay [7] (read-out: Average MIC at end point, MPAO1-ΔmutL passaged with No Antibiotic), 11 µg/mL (≈ 25.3 µM). Also, the MIC came out at 107 µg/mL (≈ 246 µM) in assay [5] (setting [8]); 16 µg/mL in assay [5] (setting [9]); 18 µg/mL in assay [5] (setting [10]); 16 µg/mL in assay [5] (setting [11]); 32 µg/mL (≈ 73.5 µM) in assay [5] (setting [12]); 16 µg/mL (≈ 36.7 µM) in assay [5] (read-out: Average MIC at end point, MPAO1-ΔmutS evolved in D-CONGA). The MIC in assay [5] (read-out: Average MIC at end point, MPAO1-ΔmutS evolved in D-CONGA-Q7) was 4 µg/mL (≈ 9.19 µM); in assay [5] (read-out: Average MIC at end point, MPAO1-ΔmutS passaged with No Antibiotic (Table 4)), 8 µg/mL (≈ 18.4 µM); in assay [5] (read-out: Average MIC at end point, MPAO1-ΔmutS passaged with No Antibiotic (Table 8)), 5 µg/mL (≈ 11.5 µM); in assay [6] (setting [13]), 8 µg/mL (≈ 18.4 µM); in assay [6] (setting [14]), 19 µg/mL; in assay [6] (setting [15]), 11 µg/mL. Moreover, the MIC in assay [6] (setting [16]) is 4 µg/mL; in assay [6] (setting [17]), 3 µg/mL; in assay [6] (setting [18]) it was 7 µg/mL (≈ 16.1 µM); in assay [6] (setting [19]) it was 7 µg/mL (≈ 16.1 µM); in assay [6] (setting [20]), 3 µg/mL (≈ 6.89 µM); in assay [6] (setting [21]), 4 µg/mL (≈ 9.19 µM).
